Measured values published in patent US9179694B2, “Method and composition for enhancing milk production and milk component concentrations” (PURINA ANIMAL NUTRITION LLC, priority 2003, dated 2015).
Marks after values point to notes of the source that are not given here.

Assay: True protein content of produced milk in sorbitol feeding trials
Assay type: in vivo, Holstein cows
Details: for True Protein in Produced Milk: Pre-Partum Trial #1 (75/0/0 g/day in wk −3..−1/+1..+4/+5..+8)
Experimental: To determine the percent of total protein, wet basis, in a sample, the actual weight of total protein is determined in accordance with Method #991.20 (33.2.11) of Official Methods of Analysis, Association of Official Analytical Chemists (AOAC) (16th Ed., 1995). The value determined by the above method yields “total Kjeldahl nitrogen,” which is equivalent to “total protein” since the above method incorporates a factor that accounts for the average amount of nitrogen in protein. Since any and all total Kjeldahl nitrogen determinations presented herein are based on the above method, the terms “total Kjeldahl nitrogen” and “total protein” are used interchangeably herein. Furthermore, those skilled in the art will recognize that the term “total Kjeldahl nitrogen” is generally used in the art to mean “total protein” with the understanding that the factor has been applied. The weight percent total protein, wet basis, is calculated by dividing the actual weight of total protein by the actual weight of the sample. The weight percent of true protein, wet basis, for a particular sample is calculated after first determining the wet basis weight percent of total Kjeldahl nitrogen and the wet basis weight percent of non-protein nitrogen in the sample. The wet basis weight percent of total Kjeldahl nitrogen in the sample is determined using the method referenced above. The wet basis weight percent of non-protein nitrogen (NPN) in the sample is determined in accordance with Method #991.21 (33.2.12) of Official Methods of Analysis, Association of Official Analytical Chemists (AOAC) (16th Ed., 1995). The weight percent of true protein, wet basis, in the sample is then determined by subtracting the wet basis weight percent of non-protein nitrogen in the sample from the wet basis weight percent of total Kjeldahl nitrogen in the sample. Each cow of each of the six different trials (Control Trial #1, Control Trial #2, Pre-Partum Trial #1, Pre-Partum Trial #2, Pre/Post Trial #1, and Pre/Post Trial #2) was milked three times daily and the weight of produced milk by each cow was recorded at each milking. The milk from each cow was sampled once per week (⅓ of the sample volume from each of the three milkings occurring on the weekly milk sampling day) and was analyzed for true protein, total fat, lactose, and total solids, as detailed in the property determination and characterization techniques presented above. Additionally, samples of blood were periodically obtained from each cow during the four trials (Control Trial 2, Pre-Partum Trial #2, Pre/Post Trial #1, and Pre/Post Trial #2) encompassed in Example Two and were analyzed for non-esterified fatty acid (NEFA) content as detailed in the property determination and characterization techniques presented above. No NEFA analysis was conducted on the cows employed in Control Trial #1 or Pre-Partum Trial #1 that are the subject of Example One. Example One includes Control Trial #1 and Pre-Partum Trial #1. Both primiparious cows and multiparious cows were included in Control Trial #1 and Pre-Partum Trial #1. Five primiparious cows and fifteen multiparious cows were included in Control Trial #1; likewise, five primiparious cows and fifteen multiparious cows were included in Pre-Partum Trial #1. All cows included in Control Trial #1 and Pre-Partum Trial #1 were Holsteins. Example Two includes Control Trial #2, Pre-Partum Trial #2, Pre/Post Trial #1, and Pre/Post Trial #2. Only multiparious, Holstein cows were included in Control Trial #2, Pre-Partum Trial #1, Pre/Post Trial #1, and Pre/Post Trial #2. Eighteen multiparious cows were included in both Control Trial #2 and Pre-Partum Trial #2, while sixteen multiparious cows were included in Pre/Post Trial #1 and seventeen multiparious cows were included in Pre/Post Trial #2.

## OC[C@@H](O)[C@@H](O)[C@H](O)[C@@H](O)CO [sorbitol]
Multiparious cows, weeks +1 through +8
  True Protein in Produced Milk: 2.82 wt %
Primiparious cows, weeks +1 through +8
  True Protein in Produced Milk: 2.9 wt %
Pre-Partum Trial #1 (75 g/day wk −3..−1 only) versus Control Trial #1, primiparious cows, weeks +1 through +8
  increase in true protein concentration in the produced milk: 7.4%
Pre-Partum Trial #2 (75/0/100 g/day in wk −3..−1/+1..+4/+5..+8), multiparious cows, week +1
  True Protein Content of Produced Milk: 3.95 weight %
Pre-Partum Trial #2 (75/0/100 g/day in wk −3..−1/+1..+4/+5..+8), multiparious cows, week +2
  True Protein Content of Produced Milk: 3.14 weight %
Pre-Partum Trial #2 (75/0/100 g/day in wk −3..−1/+1..+4/+5..+8), multiparious cows, week +3
  True Protein Content of Produced Milk: 2.81 weight %
Pre-Partum Trial #2 (75/0/100 g/day in wk −3..−1/+1..+4/+5..+8), multiparious cows, week +4
  True Protein Content of Produced Milk: 2.71^ab weight %
Pre-Partum Trial #2 (75/0/100 g/day in wk −3..−1/+1..+4/+5..+8), multiparious cows, week +5
  True Protein Content of Produced Milk: 2.63 weight %
Pre-Partum Trial #2 (75/0/100 g/day in wk −3..−1/+1..+4/+5..+8), multiparious cows, week +6
  True Protein Content of Produced Milk: 2.62 weight %
Pre-Partum Trial #2 (75/0/100 g/day in wk −3..−1/+1..+4/+5..+8), multiparious cows, week +7
  True Protein Content of Produced Milk: 2.60 weight %
Pre-Partum Trial #2 (75/0/100 g/day in wk −3..−1/+1..+4/+5..+8), multiparious cows, week +8
  True Protein Content of Produced Milk: 2.56 weight %
Pre-Partum Trial #2 (75/0/100 g/day in wk −3..−1/+1..+4/+5..+8), multiparious cows, weeks +1 through +4
  True Protein Content of Produced Milk: 3.11 weight %
Pre-Partum Trial #2 (75/0/100 g/day in wk −3..−1/+1..+4/+5..+8), multiparious cows, weeks +1 through +8
  True Protein Content of Produced Milk: 2.86 weight %
Pre-Partum Trial #2 (75/0/100 g/day in wk −3..−1/+1..+4/+5..+8), multiparious cows, weeks +5 through +8
  True Protein Content of Produced Milk: 2.60 weight %
Pre/Post Trial #1 (150/125/100 g/day in wk −3..−1/+1..+4/+5..+8), multiparious cows, week +1
  True Protein Content of Produced Milk: 4.01 weight %
Pre/Post Trial #1 (150/125/100 g/day in wk −3..−1/+1..+4/+5..+8), multiparious cows, week +1, two-trial comparison with Control Trial #2 (Table 24)
  True Protein Content of Produced Milk: 4.01 weight %
Pre/Post Trial #1 (150/125/100 g/day in wk −3..−1/+1..+4/+5..+8), multiparious cows, week +2
  True Protein Content of Produced Milk: 3.17 weight %
Pre/Post Trial #1 (150/125/100 g/day in wk −3..−1/+1..+4/+5..+8), multiparious cows, week +2, two-trial comparison with Control Trial #2 (Table 24)
  True Protein Content of Produced Milk: 3.17 weight %
Pre/Post Trial #1 (150/125/100 g/day in wk −3..−1/+1..+4/+5..+8), multiparious cows, week +3
  True Protein Content of Produced Milk: 2.85 weight %
Pre/Post Trial #1 (150/125/100 g/day in wk −3..−1/+1..+4/+5..+8), multiparious cows, week +3, two-trial comparison with Control Trial #2 (Table 24)
  True Protein Content of Produced Milk: 2.85 weight %
Pre/Post Trial #1 (150/125/100 g/day in wk −3..−1/+1..+4/+5..+8), multiparious cows, week +4
  True Protein Content of Produced Milk: 2.73^ab weight %
Pre/Post Trial #1 (150/125/100 g/day in wk −3..−1/+1..+4/+5..+8), multiparious cows, week +4, two-trial comparison with Control Trial #2 (Table 24)
  True Protein Content of Produced Milk: 2.73 weight %
Pre/Post Trial #1 (150/125/100 g/day in wk −3..−1/+1..+4/+5..+8), multiparious cows, week +5
  True Protein Content of Produced Milk: 2.65 weight %
Pre/Post Trial #1 (150/125/100 g/day in wk −3..−1/+1..+4/+5..+8), multiparious cows, week +5, two-trial comparison with Control Trial #2 (Table 24)
  True Protein Content of Produced Milk: 2.65 weight %
Pre/Post Trial #1 (150/125/100 g/day in wk −3..−1/+1..+4/+5..+8), multiparious cows, week +6
  True Protein Content of Produced Milk: 2.61 weight %
Pre/Post Trial #1 (150/125/100 g/day in wk −3..−1/+1..+4/+5..+8), multiparious cows, week +6, two-trial comparison with Control Trial #2 (Table 24)
  True Protein Content of Produced Milk: 2.61 weight %
Pre/Post Trial #1 (150/125/100 g/day in wk −3..−1/+1..+4/+5..+8), multiparious cows, week +7
  True Protein Content of Produced Milk: 2.57 weight %
Pre/Post Trial #1 (150/125/100 g/day in wk −3..−1/+1..+4/+5..+8), multiparious cows, week +7, two-trial comparison with Control Trial #2 (Table 24)
  True Protein Content of Produced Milk: 2.57 weight %
Pre/Post Trial #1 (150/125/100 g/day in wk −3..−1/+1..+4/+5..+8), multiparious cows, week +8
  True Protein Content of Produced Milk: 2.65 weight %
Pre/Post Trial #1 (150/125/100 g/day in wk −3..−1/+1..+4/+5..+8), multiparious cows, week +8, two-trial comparison with Control Trial #2 (Table 24)
  True Protein Content of Produced Milk: 2.65 weight %
Pre/Post Trial #1 (150/125/100 g/day in wk −3..−1/+1..+4/+5..+8), multiparious cows, weeks +1 through +4
  True Protein Content of Produced Milk: 3.18 weight %
Pre/Post Trial #1 (150/125/100 g/day in wk −3..−1/+1..+4/+5..+8), multiparious cows, weeks +1 through +4, two-trial comparison with Control Trial #2 (Table 24)
  True Protein Content of Produced Milk: 3.18 weight %
Pre/Post Trial #1 (150/125/100 g/day in wk −3..−1/+1..+4/+5..+8), multiparious cows, weeks +1 through +8
  True Protein Content of Produced Milk: 2.90 weight %
Pre/Post Trial #1 (150/125/100 g/day in wk −3..−1/+1..+4/+5..+8), multiparious cows, weeks +1 through +8, two-trial comparison with Control Trial #2 (Table 24)
  True Protein Content of Produced Milk: 2.90 weight %
Pre/Post Trial #1 (150/125/100 g/day in wk −3..−1/+1..+4/+5..+8), multiparious cows, weeks +5 through +8
  True Protein Content of Produced Milk: 2.62 weight %
Pre/Post Trial #1 (150/125/100 g/day in wk −3..−1/+1..+4/+5..+8), multiparious cows, weeks +5 through +8, two-trial comparison with Control Trial #2 (Table 24)
  True Protein Content of Produced Milk: 2.62 weight %
Pre/Post Trial #1 (150/125/100 g/day) versus Control Trial #2, multiparious cows, weeks +1 through +4 (Table 24)
  increase in true protein concentration in milk: 4.6%
Pre/Post Trial #1 (150/125/100 g/day) versus Control Trial #2, multiparious cows, weeks +1 through +8 (Table 24)
  increase in true protein concentration in milk: 2.8%
Pre/Post Trial #2 (75/75/100 g/day in wk −3..−1/+1..+4/+5..+8), multiparious cows, week +1
  True Protein Content of Produced Milk: 3.96 weight %
Pre/Post Trial #2 (75/75/100 g/day in wk −3..−1/+1..+4/+5..+8), multiparious cows, week +2
  True Protein Content of Produced Milk: 3.13 weight %
Pre/Post Trial #2 (75/75/100 g/day in wk −3..−1/+1..+4/+5..+8), multiparious cows, week +3
  True Protein Content of Produced Milk: 2.89 weight %
Pre/Post Trial #2 (75/75/100 g/day in wk −3..−1/+1..+4/+5..+8), multiparious cows, week +4
  True Protein Content of Produced Milk: 2.77^b weight %
Pre/Post Trial #2 (75/75/100 g/day in wk −3..−1/+1..+4/+5..+8), multiparious cows, week +5
  True Protein Content of Produced Milk: 2.70 weight %
Pre/Post Trial #2 (75/75/100 g/day in wk −3..−1/+1..+4/+5..+8), multiparious cows, week +6
  True Protein Content of Produced Milk: 2.69 weight %
Pre/Post Trial #2 (75/75/100 g/day in wk −3..−1/+1..+4/+5..+8), multiparious cows, week +7
  True Protein Content of Produced Milk: 2.64 weight %
Pre/Post Trial #2 (75/75/100 g/day in wk −3..−1/+1..+4/+5..+8), multiparious cows, week +8
  True Protein Content of Produced Milk: 2.61 weight %
Pre/Post Trial #2 (75/75/100 g/day in wk −3..−1/+1..+4/+5..+8), multiparious cows, weeks +1 through +4
  True Protein Content of Produced Milk: 3.18 weight %
Pre/Post Trial #2 (75/75/100 g/day in wk −3..−1/+1..+4/+5..+8), multiparious cows, weeks +1 through +8
  True Protein Content of Produced Milk: 2.91 weight %
Pre/Post Trial #2 (75/75/100 g/day in wk −3..−1/+1..+4/+5..+8), multiparious cows, weeks +5 through +8
  True Protein Content of Produced Milk: 2.66 weight %
Average of means of Pre-Partum Trial #2, Pre/Post Trial #1 and Pre/Post Trial #2 versus Control Trial #2, multiparious cows, weeks +1 through +4
  increase in true protein concentration in milk: 3.8%
Average of means of Pre-Partum Trial #2, Pre/Post Trial #1 and Pre/Post Trial #2 versus Control Trial #2, multiparious cows, weeks +1 through +8
  increase in true protein concentration in milk: 2.5%
